Laboratory results taken from EP3183252B1, “OXALATE SALT OF RUXOLITINIB” (ratiopharm GmbH, priority 2014, dated 2016).
Structures can show the parent of a compound that is named as a salt.

Key:
Assay type in all cases: physicochemical
[1] = pH-dependencies of solubility at 37°C; settings: for solubility at 0.5 h / solubility at 1 h / solubility at 24 h / pH dependency of solubility (in words) / solubility: 37°C; for solubility at 1 h / solubility at 24 h: thermodynamic from solid; for pH dependency of solubility (in words): pH 4.5 and 6.8
From the text: The intestinal tract obeys different pH ranges, which vary from pH 1 to 2 of the empty stomach, pH 3-5 for stomach filled with chyme, to pH 5-7.5 of the colon.

[2] = Dynamic vapor sorption experiment (hygroscopicity)
Protocol: Vapour sorption experiments were performed in the instrument SPSx-1µ (Projekt Messtechnik, Ulm, Germany) at temperature of 25°C and the humidity cycles as shown below.
A dynamic vapor sorption experiment was performed with Ruxolitinib oxalate. At a constant temperature of 25°C, the substance was exposed to two cycles of varying relative humidity (rh) (40% → 0% →95% (75% r.h. kept constant for 48h) → 0% →40%). Figure 3a presents the relative weight change as a function of time and relative humidity and in […] changes are illustrated as a function of humidity.

[3] = Storage stability: chemical purity by HPLC/UV; settings: for Chemical purity ([area-%] at λ=230 nm): 40°C/75% rh
Protocol: (§1) Samples were stored in closed and open containers at 25°C/60% rh and at 40°C/75% rh and analyzed after 4, 8 and 12 weeks.
The results of determination of the chemical purity during storage at 40°C/75% rh are summarized. Both salts remained chemically stable when stored under these conditions. Therefore, the analysis of samples, which were stored at 25°C/60% rh, was omitted.

[4] = Storage stability: solid state by XRPD analysis
Protocol: The sample was analyzed on a D8 Advance X-ray powder diffractometer (Bruker-AXS, Karlsruhe, Germany). The sample holder was rotated in a plane parallel to its surface at 20 rpm during the measurement. The raw data were analyzed with the program EVA (Bruker-AXS, Germany). The samples were layered onto a silicon specimen holder
as §1
The solid-state stability was investigated by XRPD analysis. The results of evaluation are summarized. Ruxolitinib phosphate and Ruxolitinib oxalate remained unchanged throughout the observation period.

[5] = 20mM sodium acetate pH 4.5, 0.5 h
[6] = aqueous buffer, 20mM sodium acetate pH 4.5, 1 h
[7] = aqueous buffer, 20mM sodium acetate pH 4.5, 24 h
[8] = aqueous buffer, 50mM KH2PO4 pH 6.8, 1 h
[9] = aqueous buffer, 50mM KH2PO4 pH 6.8, 24 h
[10] = pH 1.2, simulated gastric fluid, 0.1M HCl pH1.2, 1 h
[11] = pH 1.2, simulated gastric fluid, 0.1M HCl pH1.2, 24 h

## N#CC[C@H](C1CCCC1)n1cc(-c2ncnc3[nH]ccc23)cn1 (stereo in doubt) [Ruxolitinib maleate]
[1]; [5]
  solubility at 0.5 h: 2.8 mg/mL
[1]; 50mM KH2PO4 pH 6.8, 0.5 h
  solubility at 0.5 h: 2.9 mg/mL
[1]; [6]
  solubility at 1 h: 3.2 mg/mL
[1]; [7]
  solubility at 24 h: 2.4 mg/mL
[1]; [8]
  solubility at 1 h: 2.9 mg/mL
[1]; [9]
  solubility at 24 h: 2.5 mg/mL
[1]; [10]
  solubility at 1 h: 12 mg/mL
[1]; [11]
  solubility at 24 h: 12.2 mg/mL
[1]; pH 1.2, 0.1M HCl pH1.2, 0.5 h
  solubility at 0.5 h: 12.5 mg/mL
[1]
  pH dependency of solubility (in words): distinct pH dependency

## N#CC[C@H](C1CCCC1)n1cc(-c2ncnc3[nH]ccc23)cn1 (stereo in doubt) [Ruxolitinib sulfate]
[1]; 20mM sodium acetate pH 4.5, 0.5 h, 30 min
  solubility: 10.4 mg/mL
[1]; 20mM sodium acetate pH 4.5, 1 h, 60 min
  solubility: 10.6 mg/mL
[1]; 20mM sodium acetate pH 4.5, 24 h, 1440 min
  solubility: 9.5 mg/mL
[1]; 50mM KH2PO4 pH 6.8, 0.5 h, 30 min
  solubility: 9.6 mg/mL
[1]; 50mM KH2PO4 pH 6.8, 1 h, 60 min
  solubility: 9.8 mg/mL
[1]; 50mM KH2PO4 pH 6.8, 24 h, 1440 min
  solubility: 8.3 mg/mL
[1]; 0.1M HCl pH1.2, 0.5 h, 30 min
  solubility: 18.5 mg/mL
[1]; 0.1M HCl pH1.2, 1 h, 60 min
  solubility: 18.5 mg/mL
[1]; 0.1M HCl pH1.2, 24 h, 1440 min
  solubility: 16.7 mg/mL
[1]
  pH dependency of solubility (in words): less pH dependency

## N#CC[C@H](C1CCCC1)n1cc(-c2ncnc3[nH]ccc23)cn1 [Ruxolitinib oxalate]
[2]
  solid state by XRPD analysis after the DVS experiment, compared to prior: identical
[1]
  solubility overall (in words): good solubility
[1]; [5]
  solubility at 0.5 h: 24.1 mg/mL
[1]; 50mM KH2PO4 pH 6.8, 0.5 h
  solubility at 0.5 h: 21.5 mg/mL
[1]; [6]
  solubility at 1 h: 27.7 mg/mL
[1]; [7]
  solubility at 24 h: 29.9 mg/mL
[1]; [8]
  solubility at 1 h: 23.5 mg/mL
[1]; [9]
  solubility at 24 h: 23.9 mg/mL
[1]; [10]
  solubility at 1 h: 56.3 mg/mL
[1]; [11]
  solubility at 24 h: 57.4 mg/mL
[1]; pH 1.2, 0.1M HCl pH1.2, 0.5 h
  solubility at 0.5 h: 57.8 mg/mL
[3]; 25°C and 60% relative humidity (RH)
  stable upon storage for: at least 12 weeks
[3]; 40°C/75% RH
  stable upon storage for: at least 12 weeks
[3]; closed, 4 weeks
  Chemical purity ([area-%] at λ=230 nm): 100,00% area-%
[3]; closed, 8 weeks
  Chemical purity ([area-%] at λ=230 nm): 99,95% area-%
[3]; closed, 12 weeks
  Chemical purity ([area-%] at λ=230 nm): 99,90% area-%
[3]; closed, t = 00 (= initial)
  Chemical purity ([area-%] at λ=230 nm): 99,89 area-%
[3]; open, 4 weeks
  Chemical purity ([area-%] at λ=230 nm): 100,00% area-%
[3]; open, 8 weeks
  Chemical purity ([area-%] at λ=230 nm): 99,91% area-%
[3]; open, 12 weeks
  Chemical purity ([area-%] at λ=230 nm): 99,85% area-%
[3]; open, t = 00 (= initial)
  Chemical purity ([area-%] at λ=230 nm): 99,89 area-%

## N#CC[C@H](C1CCCC1)n1cc(-c2ncnc3[nH]ccc23)cn1 [Ruxolitinib phosphate]
[4]; 25°C/60% rh, closed, 4 weeks
  Evaluation of XRPD analysis: unchanged
[4]; 25°C/60% rh, closed, 8 weeks
  Evaluation of XRPD analysis: unchanged
[4]; 25°C/60% rh, closed, 12 weeks
  Evaluation of XRPD analysis: unchanged
[4]; 25°C/60% rh, open, 4 weeks
  Evaluation of XRPD analysis: unchanged
[4]; 25°C/60% rh, open, 8 weeks
  Evaluation of XRPD analysis: unchanged
[4]; 25°C/60% rh, open, 12 weeks
  Evaluation of XRPD analysis: unchanged
[4]; 40°C/75% rh, closed, 4 weeks
  Evaluation of XRPD analysis: unchanged
[4]; 40°C/75% rh, closed, 8 weeks
  Evaluation of XRPD analysis: unchanged
[4]; 40°C/75% rh, closed, 12 weeks
  Evaluation of XRPD analysis: unchanged
[4]; 40°C/75% rh, open, 4 weeks
  Evaluation of XRPD analysis: unchanged
[4]; 40°C/75% rh, open, 8 weeks
  Evaluation of XRPD analysis: unchanged
[4]; 40°C/75% rh, open, 12 weeks
  Evaluation of XRPD analysis: unchanged
[1]; 20mM sodium acetate buffer, aqueous buffer, 20mM sodium acetate pH 4.5, 1 h
  solubility at 1 h: 6 mg/mL
[1]; 20mM sodium acetate buffer, aqueous buffer, 20mM sodium acetate pH 4.5, 24 h
  solubility at 24 h: 6.8 mg/mL
[1]; 50mM KH2PO4 buffer, aqueous buffer, 50mM KH2PO4 pH 6.8, 1 h
  solubility at 1 h: 4.7 mg/mL
[1]; 50mM KH2PO4 buffer, aqueous buffer, 50mM KH2PO4 pH 6.8, 24 h
  solubility at 24 h: 5.7 mg/mL
[1]; higher pH points than pH 1.2
  solubility (in words): considerably less solubility
[1]; pH 1.2
  solubility (in words): good solubility
[1]; [10]
  solubility at 1 h: 43.2 mg/mL
[1]; [11]
  solubility at 24 h: 44 mg/mL
[3]; closed, 4 weeks
  Chemical purity ([area-%] at λ=230 nm): 99,04% area-%
[3]; closed, 8 weeks
  Chemical purity ([area-%] at λ=230 nm): 99,20% area-%
[3]; closed, 12 weeks
  Chemical purity ([area-%] at λ=230 nm): 99,03% area-%
[3]; closed, t = 00 (= initial)
  Chemical purity ([area-%] at λ=230 nm): 99,05 area-%
[3]; open, 4 weeks
  Chemical purity ([area-%] at λ=230 nm): 99,13% area-%
[3]; open, 8 weeks
  Chemical purity ([area-%] at λ=230 nm): 99,28% area-%
[3]; open, 12 weeks
  Chemical purity ([area-%] at λ=230 nm): 99,10% area-%
[3]; open, t = 00 (= initial)
  Chemical purity ([area-%] at λ=230 nm): 99,05 area-%
